These compounds were tested against MALT1 (Homo sapiens (Human), UniProt Q9UDY8) (assay: MALT1 enzymatic activity inhibition (fluorescence, Ac-LRSR-AMC substrate)). Conditions: recombinant MALT1 1.5 ng/μl, Ac-LRSR-AMC 1 μM.
Format: biochemical
Outline: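 Recombinant human MALT1 (1.5 ng/μl final) preincubated 10 min at rt with compounds in 50 mM HEPES pH 7.2-7.4, 100 mM NaCl, 900 mM sodium citrate, 10 mM DTT; 1 μM Ac-LRSR-AMC then added. AMC fluorescence read at start and after 30 min 37 °C plus 30 min rt; difference gives signal, % inhibition fitted to IC50.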

MALT1, sequence (Q9UDY8 whole entry): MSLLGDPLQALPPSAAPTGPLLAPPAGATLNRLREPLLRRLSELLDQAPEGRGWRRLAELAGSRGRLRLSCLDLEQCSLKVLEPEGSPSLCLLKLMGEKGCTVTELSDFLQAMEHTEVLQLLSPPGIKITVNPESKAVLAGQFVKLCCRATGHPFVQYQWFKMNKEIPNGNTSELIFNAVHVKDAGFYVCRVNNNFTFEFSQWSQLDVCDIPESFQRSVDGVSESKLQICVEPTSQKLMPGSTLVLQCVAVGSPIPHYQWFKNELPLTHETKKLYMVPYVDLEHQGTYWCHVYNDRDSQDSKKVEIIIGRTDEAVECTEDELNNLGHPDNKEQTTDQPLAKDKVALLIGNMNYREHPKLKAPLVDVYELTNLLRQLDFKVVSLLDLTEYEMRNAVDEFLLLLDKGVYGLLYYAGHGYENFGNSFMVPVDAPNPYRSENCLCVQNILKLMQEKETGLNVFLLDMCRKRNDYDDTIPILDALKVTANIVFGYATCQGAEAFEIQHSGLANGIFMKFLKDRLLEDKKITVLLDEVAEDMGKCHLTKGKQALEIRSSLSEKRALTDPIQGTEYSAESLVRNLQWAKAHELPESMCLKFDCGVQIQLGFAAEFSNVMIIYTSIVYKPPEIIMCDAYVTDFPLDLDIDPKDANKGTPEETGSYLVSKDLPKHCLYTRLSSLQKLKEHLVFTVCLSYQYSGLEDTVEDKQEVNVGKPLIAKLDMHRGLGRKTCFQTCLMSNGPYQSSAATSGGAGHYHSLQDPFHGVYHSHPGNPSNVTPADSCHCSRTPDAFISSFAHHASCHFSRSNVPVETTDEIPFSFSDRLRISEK

Row | SMILES | EC50
1 | O=C1CCC(N2Cc3cc(N4CCN(C(=O)CCCCCc5nnc(-c6ccc(NC(=O)Nc7cnc8ccnn8c7C7CCCC7)cn6)s5)CC4)ccc3C2=O)C(=O)N1 (centres unmarked) [Compound 128, 1-(7-cyclopentylpyrazolo[1,5-a]pyrimidin-6-yl)-3-[6-[5-[6-[4-[2-(2,6-dioxo-3-piperidyl)-1-oxo-isoindolin-5-yl]piperazin-1-yl]-6-oxo-hexyl]-1,3,4-thiadiazol-2-yl]-3-pyridyl]urea] | 1 to 5 µM
2 | CC(C)c1c(NC(=O)Nc2ccc(-c3nnc(CCCCCC(=O)N4CCN(c5ccc6c(c5)CN(C5CCC(=O)NC5=O)C6=O)CC4)s3)nc2)cnc2ccnn12 (centres unmarked) [Compound 129, 1-[6-[5-[6-[4-[2-(2,6-dioxo-3-piperidyl)-1-oxo-isoindolin-5-yl]piperazin-1-yl]-6-oxo-hexyl]-1,3,4-thiadiazol-2-yl]-3-pyridyl]-3-(7-isopropylpyrazolo[1,5-a]pyrimidin-6-yl)urea] | 1 to 5 µM
3 | Cc1cc(NC(=O)Nc2cnc3ccnn3c2C(C)C)cnc1-c1noc(CCCCC(=O)N2CCN(c3ccc4c(c3)CN(C3CCC(=O)N(COC(=O)C(C)(C)C)C3=O)C4=O)CC2)n1 (centres unmarked) [Compound 130, [3-[5-[4-[5-[3-[5-[(7-isopropylpyrazolo[1,5-a]pyrimidin-6-yl)carbamoylamino]-3-methyl-2-pyridyl]-1,2,4-oxadiazol-5-yl]pentanoyl]piperazin-1-yl]-1-oxo-isoindolin-2-yl]-2,6-dioxo-1-piperidyl]methyl 2,2-dimethylpropanoate] | ≤ 0.2 µM
4 | Cc1cc(NC(=O)Nc2cnc3ccnn3c2C(C)C)cnc1-c1noc(CCCCCC(=O)N2CCN(c3ccc4c(c3)CN(C3CCC(=O)N(COC(=O)C(C)(C)C)C3=O)C4=O)CC2)n1 (centres unmarked) [Compound 131, [3-[5-[4-[6-[3-[5-[(7-isopropylpyrazolo[1,5-a]pyrimidin-6-yl)carbamoylamino]-3-methyl-2-pyridyl]-1,2,4-oxadiazol-5-yl]hexanoyl]piperazin-1-yl]-1-oxo-isoindolin-2-yl]-2,6-dioxo-1-piperidyl]methyl 2,2-dimethylpropanoate] | ≤ 0.2 µM
5 | Cc1cc(NC(=O)Nc2cnc3ccnn3c2C2CCCCC2)cnc1-c1noc(CCCCCN2CCN(c3ccc4c(c3)CN(C3CCC(=O)NC3=O)C4=O)CC2)n1 (centres unmarked) [Compound 132, 1-(7-cyclohexylpyrazolo[1,5-a]pyrimidin-6-yl)-3-[6-[5-[5-[4-[2-(2,6-dioxo-3-piperidyl)-1-oxo-isoindolin-5-yl]piperazin-1-yl]pentyl]-1,2,4-oxadiazol-3-yl]-5-methyl-3-pyridyl]urea] | 0.2 to 0.5 µM
6 | O=C1CCC(N2Cc3cc(N4CCN(CCCCCCc5nc(-c6ncc(NC(=O)Nc7cnc8ccnn8c7C7CCCC7)cc6C(F)(F)F)no5)CC4)ccc3C2=O)C(=O)N1 (centres unmarked) [Compound 133, 1-(7-cyclopentylpyrazolo[1,5-a]pyrimidin-6-yl)-3-[6-[5-[6-[4-[2-(2,6-dioxo-3-piperidyl)-1-oxo-isoindolin-5-yl]piperazin-1-yl]hexyl]-1,2,4-oxadiazol-3-yl]-5-(trifluoromethyl)-3-pyridyl]urea] | ≤ 0.2 µM
7 | CC(C)(C)C(=O)OCN1C(=O)CCC(N2Cc3cc(N4CCN(C(=O)CCCCc5nc(-c6ncc(NC(=O)Nc7cnc8ccnn8c7C7CCCC7)cc6Cl)no5)CC4)ccc3C2=O)C1=O (centres unmarked) [Compound 134, [3-[5-[4-[5-[3-[3-chloro-5-[(7-cyclopentylpyrazolo[1,5-a]pyrimidin-6-yl)carbamoylamino]-2-pyridyl]-1,2,4-oxadiazol-5-yl]pentanoyl]piperazin-1-yl]-1-oxo-isoindolin-2-yl]-2,6-dioxo-1-piperidyl]methyl 2,2-dimethylpropanoate] | ≤ 0.2 µM
8 | CC(C)c1c(NC(=O)Nc2cnc(-c3noc(CCCC(=O)N4CCN(c5ccc6c(c5)CN(C5CCC(=O)N(C)C5=O)C6=O)CC4)n3)c(Cl)c2)cnc2ccnn12 (centres unmarked) [Compound 135, 1-[5-chloro-6-[5-[4-[4-[2-(1-methyl-2,6-dioxo-3-piperidyl)-1-oxo-isoindolin-5-yl]piperazin-1-yl]-4-oxo-butyl]-1,2,4-oxadiazol-3-yl]-3-pyridyl]-3-(7-isopropylpyrazolo[1,5-a]pyrimidin-6-yl)urea] | ≤ 0.2 µM
9 | CC(C)c1c(NC(=O)Nc2cnc(-c3noc(CCCCC(=O)N4CCN(c5ccc6c(c5)CN(C5CCC(=O)N(C)C5=O)C6=O)CC4)n3)c(Cl)c2)cnc2ccnn12 (centres unmarked) [Compound 136, 1-[5-chloro-6-[5-[5-[4-[2-(1-methyl-2,6-dioxo-3-piperidyl)-1-oxo-isoindolin-5-yl]piperazin-1-yl]-5-oxo-pentyl]-1,2,4-oxadiazol-3-yl]-3-pyridyl]-3-(7-isopropylpyrazolo[1,5-a]pyrimidin-6-yl)urea] | ≤ 0.2 µM
10 | CC(C)c1c(NC(=O)Nc2cnc(-c3noc(CCCC(=O)N4CCN(c5ccc6c(c5)CN(C5CCC(=O)N(COC(=O)C(C)(C)C)C5=O)C6=O)CC4)n3)c(Cl)c2)cnc2ccnn12 (centres unmarked) [Compound 137, [3-[5-[4-[4-[3-[3-chloro-5-[(7-isopropylpyrazolo[1,5-a]pyrimidin-6-yl)carbamoylamino]-2-pyridyl]-1,2,4-oxadiazol-5-yl]butanoyl]piperazin-1-yl]-1-oxo-isoindolin-2-yl]-2,6-dioxo-1-piperidyl]methyl 2,2-dimethylpropanoate] | ≤ 0.2 µM
11 | CC(C)c1c(NC(=O)Nc2cnc(-c3noc(CCCCC(=O)N4CCN(c5ccc6c(c5)CN(C5CCC(=O)N(COC(=O)C(C)(C)C)C5=O)C6=O)CC4)n3)c(Cl)c2)cnc2ccnn12 (centres unmarked) [Compound 138, [3-[5-[4-[5-[3-[3-chloro-5-[(7-isopropylpyrazolo[1,5-a]pyrimidin-6-yl)carbamoylamino]-2-pyridyl]-1,2,4-oxadiazol-5-yl]pentanoyl]piperazin-1-yl]-1-oxo-isoindolin-2-yl]-2,6-dioxo-1-piperidyl]methyl 2,2-dimethylpropanoate] | ≤ 0.2 µM
12 | CC(C)c1c(NC(=O)Nc2cnc(-c3noc(CCCCC(=O)N4CCN(c5ccc6c(c5)CN(C5CCC(=O)NC5=O)C6=O)CC4)n3)c(Cl)c2)cnc2ccnn12 (centres unmarked) [Compound 139, 1-[5-chloro-6-[5-[5-[4-[2-(2,6-dioxo-3-piperidyl)-1-oxo-isoindolin-5-yl]piperazin-1-yl]-5-oxo-pentyl]-1,2,4-oxadiazol-3-yl]-3-pyridyl]-3-(7-isopropylpyrazolo[1,5-a]pyrimidin-6-yl)urea] | ≤ 0.2 µM
13 | CC(C)c1c(NC(=O)Nc2cnc(-c3noc(CCCC(=O)N4CCN(c5ccc6c(c5)CN(C5CCC(=O)NC5=O)C6=O)CC4)n3)c(Cl)c2)cnc2ccnn12 (centres unmarked) [Compound 140, 1-[5-chloro-6-[5-[4-[4-[2-(2,6-dioxo-3-piperidyl)-1-oxo-isoindolin-5-yl]piperazin-1-yl]-4-oxo-butyl]-1,2,4-oxadiazol-3-yl]-3-pyridyl]-3-(7-isopropylpyrazolo[1,5-a]pyrimidin-6-yl)urea] | ≤ 0.2 µM
14 | Cc1cc(NC(=O)Nc2cnc3ccnn3c2C2CCCCC2)cnc1-c1noc(CCCCN2CCN(c3ccc4c(c3)CN(C3CCC(=O)NC3=O)C4=O)CC2)n1 (centres unmarked) [Compound 141, 1-(7-cyclohexylpyrazolo[1,5-a]pyrimidin-6-yl)-3-[6-[5-[4-[4-[2-(2,6-dioxo-3-piperidyl)-1-oxo-isoindolin-5-yl]piperazin-1-yl]butyl]-1,2,4-oxadiazol-3-yl]-5-methyl-3-pyridyl]urea] | 0.2 to 0.5 µM
15 | CC(C)c1c(NC(=O)Nc2ccc(-c3nnc(CCCCCCN4CCN(c5ccc6c(c5)CN(C5CCC(=O)NC5=O)C6=O)CC4)s3)nc2)cnc2ccnn12 (centres unmarked) [Compound 142, 1-[6-[5-[6-[4-[2-(2,6-dioxo-3-piperidyl)-1-oxo-isoindolin-5-yl]piperazin-1-yl]hexyl]-1,3,4-thiadiazol-2-yl]-3-pyridyl]-3-(7-isopropylpyrazolo[1,5-a]pyrimidin-6-yl)urea] | 1 to 5 µM
16 | O=C1CCC(N2Cc3cc(N4CCN(CCCCCCc5nnc(-c6ccc(NC(=O)Nc7cnc8ccnn8c7C7CCCC7)cn6)s5)CC4)ccc3C2=O)C(=O)N1 (centres unmarked) [Compound 143, 1-(7-cyclopentylpyrazolo[1,5-a]pyrimidin-6-yl)-3-[6-[5-[6-[4-[2-(2,6-dioxo-3-piperidyl)-1-oxo-isoindolin-5-yl]piperazin-1-yl]hexyl]-1,3,4-thiadiazol-2-yl]-3-pyridyl]urea] | 1 to 5 µM
17 | Cc1cc(NC(=O)Nc2cnc3ccnn3c2C(C)C)cnc1-c1noc(CCCC(=O)N2CCN(c3ccc4c(c3)CN(C3CCC(=O)N(C)C3=O)C4=O)CC2)n1 (centres unmarked) [Compound 144, 1-(7-isopropylpyrazolo[1,5-a]pyrimidin-6-yl)-3-[5-methyl-6-[5-[4-[4-[2-(1-methyl-2,6-dioxo-3-piperidyl)-1-oxo-isoindolin-5-yl]piperazin-1-yl]-4-oxo-butyl]-1,2,4-oxadiazol-3-yl]-3-pyridyl]urea] | ≤ 0.2 µM
18 | Cc1cc(NC(=O)Nc2cnc3ccnn3c2C(C)C)cnc1-c1noc(CCCCC(=O)N2CCN(c3ccc4c(c3)CN(C3CCC(=O)N(C)C3=O)C4=O)CC2)n1 (centres unmarked) [Compound 145, 1-(7-isopropylpyrazolo[1,5-a]pyrimidin-6-yl)-3-[5-methyl-6-[5-[5-[4-[2-(1-methyl-2,6-dioxo-3-piperidyl)-1-oxo-isoindolin-5-yl]piperazin-1-yl]-5-oxo-pentyl]-1,2,4-oxadiazol-3-yl]-3-pyridyl]urea] | ≤ 0.2 µM
19 | Cc1cc(NC(=O)Nc2cnc3ccnn3c2C(C)C)cnc1-c1noc(CCCCCC(=O)N2CCN(c3ccc4c(c3)CN(C3CCC(=O)N(C)C3=O)C4=O)CC2)n1 (centres unmarked) [Compound 146, 1-(7-isopropylpyrazolo[1,5-a]pyrimidin-6-yl)-3-[5-methyl-6-[5-[6-[4-[2-(1-methyl-2,6-dioxo-3-piperidyl)-1-oxo-isoindolin-5-yl]piperazin-1-yl]-6-oxo-hexyl]-1,2,4-oxadiazol-3-yl]-3-pyridyl]urea] | ≤ 0.2 µM
20 | CCCCOP(=O)(OCCCC)OCN1C(=O)CCC(N2Cc3cc(N4CCN(C(=O)CCCCc5nc(-c6ncc(NC(=O)Nc7cnc8ccnn8c7C(C)C)cc6C)no5)CC4)ccc3C2=O)C1=O (centres unmarked) [Compound 147, dibutyl [3-[5-[4-[5-[3-[5-[(7-isopropylpyrazolo[1,5-a]pyrimidin-6-yl)carbamoylamino]-3-methyl-2-pyridyl]-1,2,4-oxadiazol-5-yl]pentanoyl]piperazin-1-yl]-1-oxo-isoindolin-2-yl]-2,6-dioxo-1-piperidyl]methyl phosphate] | ≤ 0.2 µM

Reference: patent US20250163066A1, “PROTACs of MALT1” (TEGID THERAPEUTICS, INC., priority 2022, published 2025)
